Data: PubChem BioAssay (NCI)
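1) Cells in 96-well plates. 2) Compound, 48 h, 5 concentrations. 3) Linear interpolation between surrounding doses. 4) Unreached endpoint = highest concentration. Abbreviation: GI50, concentration required for 50% inhibition of growth. TGI: concentration producing complete growth inhibition.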

Columns and labels:
Test in all cases: NCI-60 cell line screen, 48 h
HCC-2998 colon = system: HCC-2998 colon
HOP-62 NSCLC = system: HOP-62 NSCLC
LOX IMVI melanoma = system: LOX IMVI melanoma
M14 melanoma = system: M14 melanoma
NCI-H460 lung = system: NCI-H460 lung
NCI-H522 lung = system: NCI-H522 lung
OVCAR-3 ovarian = system: OVCAR-3 ovarian
SK-MEL-2 melanoma = system: SK-MEL-2 melanoma
HCT-116 colon = system: HCT-116 colon
HS 578T breast = system: HS 578T breast

Compound | TGI (HCC-2998 colon) | TGI (HOP-62 NSCLC) | TGI (LOX IMVI melanoma) | TGI (M14 melanoma) | TGI (NCI-H460 lung) | TGI (NCI-H522 lung) | TGI (OVCAR-3 ovarian) | TGI (SK-MEL-2 melanoma) | TGI (HCT-116 colon) | TGI (HS 578T breast) | GI50 (HCT-116 colon) | GI50 (HOP-62 NSCLC) | GI50 (HS 578T breast) | GI50 (LOX IMVI melanoma) | GI50 (M14 melanoma) | GI50 (NCI-H460 lung) | GI50 (NCI-H522 lung) | GI50 (OVCAR-3 ovarian) | GI50 (SK-MEL-2 melanoma) | GI50 (HCC-2998 colon)
CCOc1ccccc1NC(=O)C1=C(C)NC(C)=C(C(=O)Nc2ccccc2OCC)C1c1cccc([N+](=O)[O-])c1 | > 100 µM | > 100 µM | > 100 µM | > 100 µM | > 100 µM | > 100 µM | > 100 µM | > 100 µM |  |  |  |  |  |  |  |  |  |  |  | 
COc1ccc2c(c1)[nH]c1c3ccc(OC)cc3oc(=O)c21 | > 100 µM | > 100 µM | > 100 µM | > 100 µM | > 100 µM |  | > 100 µM | > 100 µM | > 100 µM | > 100 µM |  |  |  |  |  |  |  |  |  | 
O=C(N/C(=C\c1ccc(F)cc1)c1nc2ccccc2[nH]1)c1ccccc1 |  |  | > 100 µM | > 100 µM | > 100 µM | > 100 µM | > 100 µM | > 100 µM | > 100 µM |  |  |  |  |  |  |  |  |  |  | 
Cc1c(Cl)cccc1NC(=O)C(=O)c1c(O)c2ccc(O)cc2oc1=O | > 100 µM | > 100 µM | > 100 µM | > 100 µM | > 100 µM | > 100 µM | > 100 µM | > 100 µM | > 100 µM |  |  |  |  |  |  |  |  |  |  | 
C1CC[N-]CC1.CC(=N\O)/C(C)=N/O.CC(=N\O)/C(C)=N/O.C[CH-]C(C)O.[Co+2] |  | 85.9 µM | 33.7 µM | 45.1 µM | 30.5 µM | 22 µM | 51.7 µM | 34.9 µM | 36.7 µM | 83.1 µM | 18.2 µM | 21.7 µM | 28 µM | 17.8 µM | 20.8 µM | 16.8 µM | 10.3 µM | 17.4 µM | 17.9 µM | 
CC(CC(=O)Nc1ccc(NC(=O)CC(C)N=NC(N)=O)cc1)N=NC(N)=O (stereo not drawn) | > 100 µM | > 100 µM | 79.8 µM | > 100 µM | > 100 µM | > 100 µM | > 100 µM | > 100 µM | > 100 µM |  |  |  |  |  |  |  |  |  |  | 
CCN1CCC(O)(/C=C/c2ccccc2)C(C(=O)/C=C/c2ccccc2)C1 (stereo not drawn) | 4.01 µM | 28.4 µM |  | 4.13 µM | 4.03 µM | 3.36 µM | 8.9 µM | 7.25 µM | 3.08 µM |  |  |  |  |  |  |  |  |  |  | 
COc1cc([C@@H]2c3cc4c(cc3[C@@H](NCc3cccc(F)c3)C3COC(=O)[C@@H]32)OCO4)cc(OC)c1O (stereo partly drawn) | 20.9 µM | 4.76 µM | 16.3 µM | 40.3 µM | 9.23 µM | 19.4 µM | 30.5 µM | 29.5 µM | 20.1 µM |  |  |  |  |  |  |  |  |  |  | 
Cc1ccc(C)c(NC(=O)C(=O)Nn2c(=S)[nH]c3ccccc3c2=O)c1 | > 100 µM | > 100 µM | > 100 µM | > 100 µM | > 100 µM | > 100 µM |  | > 100 µM | > 100 µM |  |  |  |  |  |  |  |  |  |  | 
COc1cc(CCc2ccncc2)cc(OC)c1OC |  | > 100 µM | > 100 µM | > 100 µM | > 100 µM | > 100 µM | > 100 µM |  | > 100 µM |  |  |  |  |  |  |  |  |  |  | 
C=CCCC(=O)CC(=O)OCc1ccccc1 | > 100 µM | > 100 µM | > 100 µM | > 100 µM | > 100 µM |  | > 100 µM | > 100 µM | > 100 µM |  |  |  |  |  |  |  |  |  |  | 
COC(=O)C#CC(N)=O | > 100 µM | > 100 µM | > 50.4 µM | 42.2 µM | > 100 µM | > 100 µM | > 100 µM | > 100 µM | > 100 µM |  |  |  |  |  |  |  |  |  |  | 
CC1OC(=O)N2CCC=CC12 (stereo not drawn) |  |  | > 100 µM |  | > 100 µM | > 100 µM | > 100 µM | > 100 µM | > 100 µM |  |  |  |  |  |  |  |  |  |  | 
C/C(=N\Nc1n[nH]c(=S)n1N)c1c(O)cc(C)oc1=O | > 100 µM | > 100 µM | > 100 µM | > 100 µM | > 100 µM | > 100 µM |  | > 100 µM | > 100 µM |  |  |  |  |  |  |  |  |  |  | 
CN1C/C(=C\c2ccc(C(=O)O)cc2)C(=O)/C(=C/c2ccc(C(=O)O)cc2)C1 | > 100 µM | > 100 µM | > 100 µM | > 100 µM | > 100 µM |  | > 100 µM | > 100 µM | > 100 µM |  |  |  |  |  |  |  |  |  |  | 
C#C[C@@H](CCCC)OC(=O)N[C@H](C)c1ccccc1 |  | > 100 µM | > 100 µM | > 100 µM | > 100 µM |  | > 100 µM | 53.1 µM | > 100 µM |  |  |  |  |  |  |  |  |  |  | 
CC(=O)[O][Hg][c]1s[c]([Hg][O]C(C)=O)[c]([Hg][O]C(C)=O)[c]1[Hg][O]C(C)=O | 40.1 µM | 16.5 µM |  | 14 µM | > 100 µM | > 100 µM | > 100 µM |  | > 100 µM |  | 7.12 µM | 4.91 µM |  |  | 1.98 µM | 2.35 µM | 2.54 µM | 21.4 µM | 2.19 µM | 14.6 µM
COc1ccc(/C=C2/CSC/C(=C/c3ccc(OC)c(OC)c3)C2=O)cc1OC | 6.28 µM | 8.72 µM | 2.62 µM | 10.5 µM | 7.09 µM | 5.83 µM | 5.15 µM | 7.61 µM | 2.28 µM |  |  |  |  |  |  |  |  |  |  | 
COC(=N)CCCl | > 100 µM | > 100 µM |  | > 100 µM | > 100 µM | > 100 µM | > 100 µM |  | > 100 µM |  |  |  |  |  |  |  |  |  |  | 
Cc1nc(-n2nc(-c3ccccc3)cc2-c2ccccc2)sc1C(=O)CC(=O)C(=O)Nc1ccc(O)cc1 | > 100 µM | > 100 µM | > 100 µM | > 100 µM |  | > 100 µM | > 100 µM | > 100 µM | > 100 µM |  |  |  |  |  |  |  |  |  |  | 
O=C(CCc1cc(-c2ccc(F)cc2)n[nH]1)N(Cc1ccccc1)Cc1ccccc1 | > 100 µM | > 100 µM | > 100 µM | > 100 µM | > 100 µM | > 100 µM | > 100 µM | > 100 µM | > 100 µM |  |  |  |  |  |  |  |  |  |  | 
Nc1ccn(C2CC3OCC3O2)c(=O)n1 (stereo not drawn) |  | > 100 µM | > 100 µM | > 100 µM | > 100 µM | > 100 µM | > 100 µM | > 100 µM | > 100 µM | > 100 µM |  |  |  |  |  |  |  |  |  | 
N#C/C(=C1\OC(N)=C(c2ccc(Cl)cc2)C1=O)c1ccc(Cl)cc1 | 30.9 µM | 33.4 µM | 31.4 µM | 29.8 µM | 34 µM | 24.6 µM | 28 µM |  | 32.4 µM |  |  |  |  |  |  |  |  |  |  | 
